The source of these data is article PMC6152673, “Discovery of Indeno[1,2-c]quinoline Derivatives as Potent Dual Antituberculosis and Anti-Inflammatory Agents” (Molecules : A Journal of Synthetic Chemistry and Natural …, 2017).

Series [1] concerns M. tuberculosis H37Rv (ATCC 27294). In words: Anti-Mycobacterium activity, broth microdilution Microplate Alamar Blue Assay (MABA). To be noted: MIC = lowest concentration effecting 90% reduction in fluorescence. The series is classed as cell-based.
Series [2] relates to fMLF-activated human neutrophils (superoxide anion generation). Put plainly: Superoxide anion generation in fMLF-activated human neutrophils. The format is cell-based. The settings on record: for IC50: Neutrophil, fMLF/cytochalasin B-activated human neutrophils, mean ± SEM (n = 3); for Inhibitory effect on superoxide anion generation (in words): fMLF-activated human neutrophils. The method, then: (§1) Superoxide generation and elastase release were carried out according to the procedures described previously. Neutrophils (6 × 10^5/mL) were equilibrated at 37 °C for 2 min and incubated with compounds for 5 min. Neutrophils were then activated by fMLF (100 nM) in the pretreatment of cytochalasin B (1 µg/mL for superoxide generation and 0.5 µg/mL for elastase release) for 10 min. Superoxide anion production was assayed by monitoring the superoxide dismutase-inhibitable reduction of ferricytochrome C. Elastase release was performed using MeO-Suc-Ala-Ala-Pro-Valp-nitroanilide as the elastase substrate.

Series [3] has as its system fMLF-activated human neutrophils (neutrophil elastase release). Put plainly: Neutrophil elastase release in fMLF-activated human neutrophils. The settings on record: for IC50: Neutrophil, fMLF/cytochalasin B-activated human neutrophils, mean ± SEM (n = 3); for Inhibitory effect on NE release (in words): fMLF-activated human neutrophils. The format is cell-based. The method, then: as §1

Another series relates to Vero cells. Put plainly: Vero cell viability (MTT, Promega Cell Titer 96).

Values after ≈ are worked out from the molar mass of the structure shown.

The MIC is the lowest concentration found to suppress growth. As a reminder, the IC50 is the point on the concentration scale where inhibition reaches its midpoint. High values mean a need for much substance, low ones inhibition by little substance. A word on the melting point: it is the temperature of the solid-liquid transition. The compound `O=C1c2ccccc2-c2c(N3CCCC(CO)C3)nc3ccccc3c21` (centres unmarked) [Compound 3g, 6-(3-Piperidinemethano-1-yl)-11H-indeno[1,2-c]quinolin-11-one] returned a melting point of 220 to 221 °C. Moreover, the MIC in series [1] amounted to 3.07 µg/mL (≈ 8.91 µM). It took 2770 ± 470 nM to reach half-maximal inhibition in series [2] (IC50). The compound further displayed an IC50 in series [3] of 2120 ± 1190 nM. Besides, in the series on Vero cells, the “Survival Rate of Vero Cells @ 20 μg/mL” value is listed as 92.25%.
Taken in the same sequence, the figures for `O=C1c2ccccc2-c2c(N3CCOCC3)nc3ccccc3c21` [Compound 3c, 6-(Morpholino-1-yl)-11H-indeno[1,2-c]quinolin-11-one] were 171 to 173 °C, 3.12 µg/mL (≈ 9.86 µM), > 10000 nM, > 10000 nM and 91.19%.
`COc1ccc2c(c1)C(=O)c1c-2c(N2CCCCC2)nc2ccccc12` [Compound 4b]: in series [1], the MIC is > 20 µg/mL. For the same compound, the IC50 in series [2] and in series [3] was > 10000 nM throughout. For the same compound, the “Survival Rate of Vero Cells @ 20 μg/mL” value in the series on Vero cells is listed as 99.55%.
`O=C(N/N=C1\c2ccccc2-c2c(N3CCC(O)CC3)nc3ccccc3c21)c1ccccc1` [Compound 11, (E)-N′-[6-(4-Hydroxypiperidin-1-yl)-11H-indeno[1,2-c]quinolin-11-ylidene]benzohydrazide] came in with a melting point of 258 to 259 °C. In series [1], this compound returned a minimal inhibitory concentration (MIC) of 1.98 µg/mL (≈ 4.41 µM). The compound further yielded an IC50 in series [2] of 1670 ± 870 nM. Also, in series [3], the IC50 is > 10000 nM and the “Inhibitory effect on NE release (in words)” value is “inactive”. The “Survival Rate of Vero Cells @ 20 μg/mL” value in the series with Vero cells was determined as 89.55%.
Regarding `COc1ccc2c(c1)C(=O)c1c-2c(N2CCC(CO)CC2)nc2ccccc12` [Compound 4f, 6-[4-(Hydroxymethyl)piperidin-1-yl]-9-methoxy-11H-indeno[1,2-c]quinolin-11-one], the melting point lay within 218 to 219 °C. Further, the MIC in series [1] is > 20 µg/mL. The compound also displayed an IC50 in series [2] of 1930 ± 920 nM. The IC50 in series [3] was 880 ± 300 nM. Besides, the “Survival Rate of Vero Cells @ 20 μg/mL” value with Vero cells was determined as 90.26%.
Regarding `COc1ccc2c(c1)C(=O)c1c-2c(N2CCOCC2)nc2ccccc12` [Compound 4c], the MIC in series [1] was > 20 µg/mL. In addition, the IC50 in series [2] and in series [3] was > 10000 nM in each case. Besides, the “Survival Rate of Vero Cells @ 20 μg/mL” value with Vero cells is 94.47%.
With `CO/N=C1\c2ccccc2-c2c(N3CCC(O)CC3)nc3ccccc3c21` [Compound 8, (E)-6-(4-Hydroxypiperidin-1-yl)-11H-indeno[1,2-c]quinolin-11-one O-methyl Oxime], the melting point was in the range of 183 to 184 °C. In addition, in series [1], the MIC was > 20 µg/mL. In series [2], the IC50 was 2680 ± 950 nM and the “Inhibitory effect on superoxide anion generation (in words)” value was “comparable anti-inflammatory activity”. In addition, in series [3], inhibition was half-maximal at 2130 ± 920 nM (IC50) and the “Inhibitory effect on NE release (in words)” value is reported as “comparable anti-inflammatory activity”. Also, the “Survival Rate of Vero Cells @ 20 μg/mL” value in the series with Vero cells came out at 91.48%.
`O=C1c2ccccc2-c2c(N3CCC(CO)CC3)nc3ccccc3c21` [Compound 3f, 6-(4-Piperidinemethano-1-yl)-11H-indeno[1,2-c]quinolin-11-one]: the melting point is 223 to 224 °C. In series [1], this compound gave an MIC of 3.98 µg/mL (≈ 11.6 µM). Further, in series [2], the IC50 is 3370 ± 170 nM. Also, inhibition in series [3] was half-maximal at 4500 ± 1320 nM (IC50). The “Survival Rate of Vero Cells @ 20 μg/mL” value with Vero cells stood at 91.11%.
For `O=C(N/N=C1\c2ccccc2-c2c(N3CCC(O)CC3)nc3ccccc3c21)c1ccncc1` [Compound 12, (E)-N′-[6-(4-Hydroxypiperidin-1-yl)-11H-indeno[1,2-c]quinolin-11-ylidene]isonicotino Hydrazide] the same measures were 282 to 283 °C, 0.96 µg/mL (≈ 2.14 µM), 1720 ± 230 nM, 1760 ± 490 nM and 94.25%.
Taken in the same sequence, the figures for `O=C1c2ccccc2-c2c(N3CCC(O)CC3)nc3ccccc3c21` [Compound 3d, 6-(4-Hydroxypiperidin-1-yl)-11H-indeno[1,2-c]quinolin-11-one] were 208 °C, 2.09 µg/mL (≈ 6.33 µM), 1780 ± 440 nM, 2200 ± 690 nM and 91.23%.
In turn, `OC1CCN(c2nc3ccccc3c3c2-c2ccccc2C3)CC1` [Compound 5, 1-(11H-Indeno[1,2-c]quinolin-6-yl)piperidin-4-ol] displayed an MIC in series [1] of 18 µg/mL (≈ 56.9 µM). Besides, in series [2], the IC50 came out at 4020 ± 1080 nM and the “Inhibitory effect on superoxide anion generation (in words)” value is recorded as “weakly active”. In series [3], half-maximal inhibition (IC50) was put at 5290 ± 480 nM and the “Inhibitory effect on NE release (in words)” value was “weakly active”. For the same compound, the “Survival Rate of Vero Cells @ 20 μg/mL” value in the series with Vero cells is 85.41%.
In series [1], `COc1ccc2c(c1)C(=O)c1c-2c(N2CCC(O)CC2)nc2ccccc12` [Compound 4d, 6-(4-Hydroxypiperidin-1-yl)-9-methoxy-11H-indeno[1,2-c]quinolin-11-one] came in with an MIC of 7.74 µg/mL (≈ 21.5 µM). The figures for the IC50 in series [2] and in series [3] were 2820 ± 300 nM and 2050 ± 240 nM, respectively. Besides, the “Survival Rate of Vero Cells @ 20 μg/mL” value in the series on Vero cells is 84.72%.
`NC(=S)N/N=C1\c2ccccc2-c2c(N3CCC(O)CC3)nc3ccccc3c21` [Compound 10, (E)-2-[6-(4-Hydroxypiperidin-1-yl)-11H-indeno[1,2-c]quinolin-11-ylidene]hydrazine Carbothioamide] displayed a melting point of 304 to 305 °C. Also, in series [1], the MIC is > 20 µg/mL. The same compound had an IC50 in series [2] of 2410 ± 360 nM. Besides, the IC50 in series [3] was > 10000 nM. In the series with Vero cells, the “Survival Rate of Vero Cells @ 20 μg/mL” value is on record as 80.28%.
For the compound `COc1ccc2c(c1)C(=O)c1c-2c(N2CCCC2)nc2ccccc12` [Compound 4a, 9-Methoxy-6-(pyrrolidin-1-yl)-11H-indeno[1,2-c]quinolin-11-one], the MIC in series [1] was determined as 17 µg/mL (≈ 51.5 µM). The IC50 in series [2] and in series [3] was > 10000 nM in each case. Also, the “Survival Rate of Vero Cells @ 20 μg/mL” value in the series on Vero cells came out at 89.62%.
`CC1(O)c2ccccc2-c2c(N3CCC(O)CC3)nc3ccccc3c21` (centres unmarked) [Compound 6, 6-(4-Hydroxypiperidin-1-yl)-11-methyl-11H-indeno[1,2-c]quinolin-11-ol] showed a melting point of 146 to 147 °C. Moreover, in series [1], the MIC was > 20 µg/mL. In addition, in series [2], the IC50 is > 10000 nM and the “Inhibitory effect on superoxide anion generation (in words)” value was “inactive”. Besides, in series [3], the IC50 was > 10000 nM and the “Inhibitory effect on NE release (in words)” value is “inactive”. For the same compound, the “Survival Rate of Vero Cells @ 20 μg/mL” value with Vero cells came to 89.83%.
Consider `NNC(=O)c1ccncc1` [INH, isoniazid, reference compound], for which the MIC in series [1] was in the range of 0.8 to 1.2 µg/mL (≈ 5.83 to 8.75 µM). For the same compound, in the series with Vero cells, the “Survival Rate of Vero Cells @ 20 μg/mL” value is reported as 84.80%.
`O=C1c2ccccc2-c2c(N3CCCC(O)C3)nc3ccccc3c21` (centres unmarked) [Compound 3e, 6-(3-Hydroxypiperidin-1-yl)-11H-indeno[1,2-c]quinolin-11-one] displayed a melting point of 211 to 212 °C. Moreover, the MIC in series [1] was found to be 4.97 µg/mL (≈ 15 µM). The same compound showed an IC50 in series [2] of 2900 ± 110 nM. 2800 ± 90 nM corresponded to half-maximal inhibition in series [3] (IC50). The “Survival Rate of Vero Cells @ 20 μg/mL” value with Vero cells worked out at 87.78%.
Taken in the same sequence, the figures for `O=C1c2ccccc2-c2c(N3CCCC3)nc3ccccc3c21` [Compound 3a, 6-(Pyrrolidin-1-yl)-11H-indeno[1,2-c]quinolin-11-one] were 163 to 164 °C, 4.56 µg/mL (≈ 15.2 µM), > 10000 nM, > 10000 nM and 88.61%.
For `O=C1c2ccccc2-c2c(N3CCCCC3)nc3ccccc3c21` [Compound 3b, 6-(Piperidin-1-yl)-11H-indeno[1,2-c]quinolin-11-one] the same measures were 165 to 166 °C, 4.93 µg/mL (≈ 15.7 µM), > 10000 nM, > 10000 nM and 96.18%.
For `COc1ccc2c(c1)C(=O)c1c-2c(N2CCCC(CO)C2)nc2ccccc12` (centres unmarked) [Compound 4g, 6-[3-(Hydroxymethyl)piperidin-1-yl]-9-methoxy-11H-indeno[1,2-c]quinolin-11-one] the same measures were 243 to 244 °C, > 20 µg/mL, 680 ± 140 nM, 460 ± 80 nM and 87.60%.
`NC(=O)N/N=C1\c2ccccc2-c2c(N3CCC(O)CC3)nc3ccccc3c21` [Compound 9, (E)-2-[6-(4-Hydroxypiperidin-1-yl)-11H-indeno[1,2-c]quinolin-11-ylidene]hydrazine Carboxamide] yielded a melting point of 289 to 290 °C. The MIC in series [1] was > 20 µg/mL. For the same compound, in series [2], the IC50 amounted to 3640 ± 1430 nM. In addition, the IC50 in series [3] is > 10000 nM. The “Survival Rate of Vero Cells @ 20 μg/mL” value with Vero cells came out at 81.20%.
Regarding `COc1ccc2c(c1)C(=O)c1c-2c(N2CCCC(O)C2)nc2ccccc12` (centres unmarked) [Compound 4e, 6-(3-Hydroxypiperidin-1-yl)-9-methoxy-11H-indeno[1,2-c]quinolin-11-one], the melting point is 191 to 192 °C. The compound further registered an MIC in series [1] of 19.1 µg/mL (≈ 53 µM). This compound also returned an IC50 in series [2] of 1890 ± 650 nM. This compound showed an IC50 in series [3] of 2930 ± 700 nM. In addition, the “Survival Rate of Vero Cells @ 20 μg/mL” value in the series on Vero cells worked out at 87.59%.
For the compound `O/N=C1\c2ccccc2-c2c(N3CCC(O)CC3)nc3ccccc3c21` [Compound 7, (E)-6-(4-Hydroxypiperidin-1-yl)-11H-indeno[1,2-c]quinolin-11-one Oxime], the melting point lay in the range of 155 to 156 °C. For the same compound, the MIC in series [1] was > 20 µg/mL. Besides, in series [2], it took 830 ± 470 nM to reach half-maximal inhibition (IC50) and the “Inhibitory effect on superoxide anion generation (in words)” value is “comparable anti-inflammatory activity”. Also, in series [3], half-maximal inhibition (IC50) was put at 1390 ± 640 nM and the “Inhibitory effect on NE release (in words)” value is “comparable anti-inflammatory activity”. The “Survival Rate of Vero Cells @ 20 μg/mL” value in the series with Vero cells was 84.14%.
